Test results from a melting point compilation (Tetko et al.; mined from patent text by program, amines drawn as free bases though some values may be those of a salt).
Residues, ends and D or L forms follow the SMILES beside them.

| SMILES | melting point [°C] |
| --- | --- |
| CC(C)(C)OC(=O)NC1CCc2cc(C(=O)O)ccc2C1 (stereo unspecified) | 210 to 213 |
| COc1cc(CCI)cc2c1OCO2 | 78 to 80 |
| CCOC(=O)N1CCC23CCCCC12c1ccccc1CC3 (stereo unspecified) | 67 to 69 |
| Cc1cnc2c(-c3nc[nH]n3)c(Cl)ccc2c1 | 274 to 276 |
| COc1cc(OC)cc(N2CCN(C(=S)Nc3cc4c(nc3OC)CCCC4)CC2)c1 | 160 to 161 |
| COc1ccnc(C(C)Sc2nc3cc(OC(F)(F)C(F)Cl)ccc3[nH]2)c1 (stereo unspecified) | 120 to 122 |
| CC(=O)OCC(=O)C1(OC(C)=O)CCC2C3CCC4=CC(=O)C=CC4(C)C3C(O)CC21C (stereo unspecified) | 99.5 |
| CC(C)(C)OC(=O)NC(Cc1ccc([N+](=O)[O-])cc1)C(=O)O (stereo unspecified) | 105 to 107 |
| Cc1ccc(S(=O)(=O)N2[C@H](CCCc3nnn(C)n3)CC[C@@H]2c2ccc(F)cc2)cc1 (racemic) | 107 |
| O=C(O)COc1cccc2c(CC(O)CCC(c3ccccc3)c3ccccc3)coc12 (stereo unspecified) | 155 to 157 |
| O=C(O)c1cccc(C(=O)Nc2ccc(-n3nc(C(F)(F)F)cc3C(F)(F)F)cc2)c1 | 244 to 245 |
| Fc1cc(F)c(-c2c(Cl)nc3ncnn3c2Cl)c(F)c1 | 125 to 126 |
| CN1CCC(c2c(O)cc(O)c3c(=O)cc(-c4ccccc4Cl)oc23)C1Cn1ccnc1 (stereo unspecified) | 249 to 250 |
| Fc1ccc(OC(CCN2CCN(c3ccccc3)CC2)c2ccccc2)cc1 (stereo unspecified) | 80 to 82 |
| Cc1ccc(-c2cn(C)cc(-c3ccc(C)cc3)c2=O)cc1 | 212 to 214 |
| O=C1NC(=S)SC1=Cc1ccnc2ccccc12 | 325 to 328 |
| O=C(O)CN1C(=O)C(=Cc2ccc(Cl)cc2Cl)SC1=S | > 237 |
| CCC1=C(C)CN(C(=O)NC2COc3cc(OC)c(S(=O)(=O)NC(=S)NC)cc3C2)C1=O (stereo unspecified) | 205 |
| COCCNC1CCN(c2ccc(NC(=O)c3cnn(-c4ccc(Cl)cc4)c3C)cc2C#N)CC1 | 194 |
| CSc1nn2c(O)cc(C)nc2c1S(=O)(=O)c1ccc(C(C)C)cc1 | 183 to 184 |
| NC(=O)c1c(Cl)ccc(Br)c1Cl | 117 to 119 |
| CC(C)(C)OC(=O)N1CCC(c2ccc(COc3ccc([N+](=O)[O-])cc3)nc2)CC1 | 149 to 150 |
| CCOC(=O)C1=C(COCCNc2nc(N)n[nH]2)NC(C)=C(C(=O)OC)C1c1cccc(C(F)(F)F)c1Cl (stereo unspecified) | 144 to 145 |
| CC(C)(CO[N+](=O)[O-])C(=O)N1C(C(=O)O)CSC1c1ccccc1 (stereo unspecified) | 35 to 38 |

| SMILES | melting point [°C] |
| --- | --- |
| CCCc1cc(OC)c(OC)c(C(=O)NC[C@@H]2CCCN2CC)c1OC | 68 to 70 |
| CC(C)CP(=O)(CCC(=O)O)CCC(=O)O | 186 to 187 |
| CS(=O)(=O)Nc1cccc(Nc2nc(NC3CN4CCC3CC4)c3nc[nH]c3n2)c1 (stereo unspecified) | 200 to 204 |
| CCOC(=O)c1c(NCC(=O)c2ccc(C(F)(F)F)cc2)c2c(Cl)cc(Cl)cc2n1C(=O)OC(C)(C)C | 159 to 160 |
| CCCCCCCCCCCCCCCCCCNC(=O)OCC(CNS(=O)(=O)CCCCl)OC(=O)NC (stereo unspecified) | 102 to 104 |
| CC12CCC(=O)CC1CCC1C2CCC2(C)C(OC(=O)CCl)CCC12 (stereo unspecified) | 135 to 136 |
| CC(=O)Nc1c([N+](=O)[O-])cc(Br)c2c1CCN(C(C)=O)C2 | 171 |
| COc1cc(C(=O)O)c(OC)cc1C | 120 |
| CC1CCOCc2nc3c(N)nc4cc(Br)ccc4c3n21 (stereo unspecified) | 247 to 248 |
| O=C1OC(Cc2ccccc2)(Cc2ccccc2)C2CNCCN12 (stereo unspecified) | 132 to 133 |
| COc1ccc(Cl)cc1NC(=O)C1CCNCC1 | 124 to 126 |
| Nc1ccccc1CCCC(C(=O)O)N1C(=O)c2ccccc2C1=O (stereo unspecified) | 258 to 260 |
| COC(=O)C(C(=O)OC)c1ccc(C(=O)O)cc1[N+](=O)[O-] | 147 to 149 |
| O=C1c2ccccc2C(=O)c2c1c(Br)n1c2Cc2ccccc2C1 | > 320 |
| C[C@]1(COc2ccc(N3CCC(N4CCN(c5ccc(OC(F)(F)F)cc5)CC4)CC3)cc2)Cn2cc([N+](=O)[O-])nc2O1 | 279 to 281 |
| CCc1oc2cccc(O)c2c1C | 105 to 107 |
| CN(C)CCC(Oc1ccc(C(F)(F)F)cc1)c1ccccc1 (stereo unspecified) | 117 to 119 |
| Oc1c(I)cc(-c2c3ccccc3cc3sc4ccccc4c23)cc1I | 213 to 214 |
| COc1cc(NC(=O)c2cccc(CSc3cnccn3)c2)cc(OC)c1OC | 112 to 119 |
| CC1(C)N=C(c2ccccc2F)c2cc([N+](=O)[O-])cc(Br)c2NC1=O | 164 |
| O=C(NC1CCCCC1)N[C@H]1C[C@H](C(=O)O)Nc2cc(Cl)cc(Cl)c21 (relative stereo) | 217 to 219 |
| CC(C)(C)OC(=O)/C=C1\CCc2cccc3c2N1CC3 | 105 to 107 |
| Cc1ccc(C)c(OCc2ccccc2C(=NOC(F)F)C(N)=O)c1 | 153 to 156 |
| CN1Cc2c(ccc(F)c2Cl)-n2c(c(C#CC(C)(C)O)[nH]c2=O)C1 | 208 to 209 |

| SMILES | melting point [°C] |
| --- | --- |
| CC(C)c1csc(/C=C/c2cc(N)ccc2Cl)n1 | 82 to 85 |
| COCCNC(=O)c1c(O)c2ccccc2n(C)c1=N | 208 to 210 |
| COc1cccc2c1nc(C(F)F)n2-c1nc(N2CCOCC2)nc(N2CCN(S(=O)(=O)C(F)(F)F)CC2)n1 | 272 to 273 |
| Cc1c(CC(=O)O)c2cc(O)c(F)cc2n1C(=O)c1ccc(Cl)cc1 | 193 to 195 |
| FC(F)(F)c1ccc(/C=C/c2nc(COc3ccc(CCCCn4ccnn4)cc3)co2)cc1 | 160 to 161 |
| NCc1ccc(OCc2ccccc2)c(O)c1 | 122 to 125 |
| C=CCc1cc(CC(=O)NCCCC)ccc1O | 48 to 50 |
| CC(=O)OCCC1CC2=C(O1)C(C)=CC(C)(O)C2C (racemic) | 90 to 92 |
| CCn1ncc2c1ncc1c(NCCCN(C)C)nc3cc(C)nn3c12 | 178 to 179 |
| COc1ccc(C2C(=O)c3ccc(OC)cc3C2=O)cc1 (stereo unspecified) | 163 |
| CC(=O)NC(Cc1ccccc1)C(=O)NC(Cc1ccccc1)C(=O)NC(Cc1c[nH]cn1)C(=O)O (stereo not drawn) (Ac-Phe-Phe-His-OH; configuration not given here) | 143 to 145 |
| O=C(CC12CC3CC(CC(C3)C1)C2)Nc1ccc(O)cc1Cl | 224 to 225 |
| CCC(=O)N(C(=O)CC)c1c(I)cc(Br)cc1S(=O)(=O)Cl | 127 to 132 |
| CN1CCC[C@H]1COc1ccc(/C=C/C(=O)O)cc1 | 251 |
| COCCCCCC(=NO)c1ccc(Cl)c(Cl)c1 | 53 to 54.5 |
| O=c1[nH]c2cccc(C(F)(F)F)c2c(=O)o1 | 232 to 233 |
| CCN1CCC(=O)C(=C2SC=CS2)C1=O | 114 to 117 |
| CCCOc1ccccc1-c1nc(O)cc(C(=O)OCC)n1 | 137 to 138 |
| O=C(O)COc1ccc(C(=O)c2ccc(Cl)c(Cl)c2)c(Cl)c1Cl | 165 to 167 |
| Cc1cc(S(=O)(=O)N(CC(N)=O)c2ccc(Cl)cc2Cc2cc(F)ccc2F)c(C)cc1Cl | 170 |
| CN(C)CCCC1(O)c2ccccc2COc2ccc(C3=NC(C)(C)CO3)cc21 (stereo unspecified) | 166 to 167 |
| COc1ccc2sc(C(=O)Nc3ccc(S(=O)(=O)OC)cc3)c(OC(C)C)c2c1 | 176 to 177 |
| Cc1nc2cc(C#N)cc(C#N)c2[nH]1 | 290 to 292 |
